Structures are written as SMILES.

T1 sequence (P47898 whole entry): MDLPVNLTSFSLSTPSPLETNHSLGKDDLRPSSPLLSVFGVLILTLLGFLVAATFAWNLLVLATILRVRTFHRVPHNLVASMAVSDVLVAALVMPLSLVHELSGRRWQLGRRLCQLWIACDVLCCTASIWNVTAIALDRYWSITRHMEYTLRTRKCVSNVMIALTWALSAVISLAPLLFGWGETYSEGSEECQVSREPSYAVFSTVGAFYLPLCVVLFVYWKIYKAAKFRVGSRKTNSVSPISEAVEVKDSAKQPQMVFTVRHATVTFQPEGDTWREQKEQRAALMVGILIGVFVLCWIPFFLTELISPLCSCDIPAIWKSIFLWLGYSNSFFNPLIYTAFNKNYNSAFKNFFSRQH

This experiment has as its target T1, recombinant human 5-HT5A receptor (Homo sapiens, UniProt P47898).
T1 construct: expressed in transfected cells; host or cells: Human Embryonic Kidney-EBNA (HEK-EBNA) cells, transient cDNA expression; membranes
Put plainly: [3H]LSD radioligand binding assay. The note with it: [3H]LSD approx. 1 nM; membranes from HEK-EBNA cells transiently expressing 5-HT5A; Ki from IC50 by Cheng-Prussoff. The procedure:
A [^3H]LSD radioligand binding assay was used to determine the affinity of the compounds for the recombinant human 5-HT5A receptor, in membranes from transiently (cDNA) expressed 5-HT5A receptors in Human Embryonic Kidney-EBNA (HEK-EBNA) cells. Assay buffer consisted of Tris (50 mM) buffer containing 1 mM EGTA, 10 mM MgCl2 (pH 7.4) and 10 μM pargyline. The binding assay was carried out in 96-well-plates in the presence of [^3H]LSD (approximately 1 nM), approximately 2 μg/well of membrane protein, and 0.5 mg of Ysi-poly-l-lysine SPA beads in a final volume of 200 μl of buffer. Non-specific binding was defined using methiothepin 2 μM. Compounds were tested at 10 concentrations. All assays were conducted in duplicate and repeated at least two times. Assay plates were incubated for 120 min at room temperature before centrifugation. Bound ligand was determined using a Packard Topcount scintillation counter. IC50 values were calculated using a non-linear curve fitting program and Ki values calculated using the Cheng-Prussoff equation.
With `c1cc(Nc2ccc3c(NCc4ccc5[nH]cnc5c4)cccc3n2)cc(C2CC2)c1` [Example 165, N5-(1H-Benzoimidazol-5-ylmethyl)-N2-(3-cyclopropyl-phenyl)-quinoline-2,5-diamine], the Ki (as a rule, the dissociation constant of the complex between target and ligand, obtained from inhibition or displacement) is 6.43 nM.

As to `Cc1ccc(CNc2ccc3c(NCc4c[nH]cn4)cccc3n2)o1` [Example 87, N5-(1H-Imidazol-4-ylmethyl)-N2-(5-methyl-furan-2-ylmethyl)-quinoline-2,5-diamine], the Ki worked out at 15.7 nM.

Consider `Cc1cc2cccc(Nc3ccc4c(Nc5cccc6[nH]ccc56)cccc4n3)c2o1` [Example 113, N5-(1H-Indol-4-yl)-N2-(2-methyl-benzofuran-7-yl)-quinoline-2,5-diamine], for which the Ki came out at 20.6 nM.

As for `Cc1cc2cccc(Nc3ccc4c(NCc5cccnc5)cccc4n3)c2o1` [Example 129, N2-(2-Methyl-benzofuran-7-yl)-N5-pyridin-3-ylmethyl-quinoline-2,5-diamine], the Ki was found to be 16 nM.

On to `Cc1cc2cccc(Nc3ccc4c(NCc5cc(F)cc(F)c5)cccc4n3)c2o1` [Example 132, N5-(3,5-Difluoro-benzyl)-N2-(2-methyl-benzofuran-7-yl)-quinoline-2,5-diamine], for which the Ki came out at 15 nM.

In the case of `c1cc(CNc2ccc3c(NCc4cccc5[nH]ccc45)cccc3n2)c2c(c1)OCCO2` [Example 118, N2-(2,3-Dihydro-benzo[1,4]dioxin-5-ylmethyl)-N5-(1H-indol-4-ylmethyl)-quinoline-2,5-diamine], the Ki came out at 5.66 nM.

On to `Cc1ccc(CNc2ccc3c(Nc4cccc5cc[nH]c45)cccc3n2)o1` [Example 93, N5-(1H-Indol-7-yl)-N2-(5-methyl-furan-2-ylmethyl)-quinoline-2,5-diamine], for which the Ki was 28.2 nM.

As for `COc1cccc(OC)c1CNc1ccc2c(NCc3cccnc3)cccc2n1` [Example 99, N2-(2,6-Dimethoxy-benzyl)-N5-pyridin-3-ylmethyl-quinoline-2,5-diamine], the Ki amounted to 84.6 nM.

Take `COc1ccccc1CNc1ccc2c(CCc3cccnc3)cccc2n1` [Example 16, (2-Methoxy-benzyl)-[5-(2-pyridin-3-yl-ethyl)-quinolin-2-yl]-amine]: the Ki came out at 32.6 nM.

Regarding `CC(C)(C)c1cccc(Nc2ccc3c(NS(=O)(=O)c4cc(F)cc(F)c4)cccc3n2)c1` [Example 161, N-[2-(3-tert-Butyl-phenylamino)-quinolin-5-yl]-3,5-difluoro-benzenesulfonamide], the inhibitory constant (Ki) was 35.5 nM.

With `Cc1ccc(CNc2ccc3c(NS(=O)(=O)c4ccccc4)cccc3n2)o1` [Example 39, N-{2-[(5-Methyl-furan-2-ylmethyl)-amino]-quinolin-5-yl}-benzenesulfonamide], the Ki is 28.7 nM.

`Cc1ccc(CNc2ccc3c(NS(=O)(=O)c4ccc(F)c(F)c4)cccc3n2)o1` [Example 74, 3,4-Difluoro-N-{2-[(5-methyl-furan-2-ylmethyl)-amino]-quinolin-5-yl}-benzenesulfonamide]: the Ki was found to be 12.9 nM.

With `COc1ccccc1CNc1ccc2c(C(=O)c3ccc(F)cc3)cccc2n1` [Example 137, (4-Fluoro-phenyl)-[2-(2-methoxy-benzylamino)-quinolin-5-yl]-methanone], the Ki came to 50.9 nM.

On to `CC1(C)Cc2cccc(Nc3ccc4c(NCc5cccnc5)cccc4n3)c2O1` [Example 163, N2-(2,2-Dimethyl-2,3-dihydro-benzofuran-7-yl)-N5-pyridin-3-ylmethyl-quinoline-2,5-diamine], for which the Ki worked out at 9.92 nM.

With `COc1ccccc1CNc1ccc2c(NCc3c[nH]nn3)cccc2n1` [Example 106, N2-(2-Methoxy-benzyl)-N5-(1H-[1,2,3]triazol-4-ylmethyl)-quinoline-2,5-diamine], the Ki was 30.4 nM.

`CC1(C)Cc2cccc(Nc3ccc4c(NC5CCS(=O)(=O)c6ccccc65)cccc4n3)c2O1` (racemic) [Example 144, rac-N2-(2,2-Dimethyl-2,3-dihydro-benzofuran-7-yl)-N5-(1,1-dioxo-1l6-thiochroman-4-yl)-quinoline-2,5-diamine]: the inhibition constant Ki worked out at 15.4 nM.

`COc1ncccc1CNc1cccc2nc(NCc3ccc(C)o3)ccc12` [Example 27, N5-(2-Methoxy-pyridin-3-ylmethyl)-N2-(5-methyl-furan-2-ylmethyl)-quinoline-2,5-diamine]: the Ki came out at 43 nM.

As for `Cc1cc2cccc(Nc3ccc4c(NS(=O)(=O)c5cc(F)cc(F)c5)cccc4n3)c2o1` [Example 89, 3,5-Difluoro-N-[2-(2-methyl-benzofuran-7-ylamino)-quinolin-5-yl]-benzenesulfonamide], the Ki was determined as 50.6 nM.

As to `Cc1ccc(CNc2ccc3c(CCc4cccc(S(N)(=O)=O)c4)cccc3n2)o1` [Example 34, 3-(2-{2-[(5-Methyl-furan-2-ylmethyl)-amino]-quinolin-5-yl}-ethyl)-benzenesulfonamide], the Ki stood at 12.4 nM.

With `COc1ccccc1CNc1ccc2c(NCc3ccc4nc[nH]c4c3)cccc2n1` [Example 114, N5-(3H-Benzoimidazol-5-ylmethyl)-N2-(2-methoxy-benzyl)-quinoline-2,5-diamine], the Ki came to 3.33 nM.

Turning to `FC(F)(F)Oc1ccccc1CNc1ccc2c(NCc3ccc4[nH]cnc4c3)cccc2n1` [Example 117, N5-(1H-Benzoimidazol-5-ylmethyl)-N2-(2-trifluoromethoxy-benzyl)-quinoline-2,5-diamine], the Ki was 32.4 nM.

For `Cc1cccc(CNc2cccc3nc(NCc4ccc(C)o4)ccc23)n1` [Example 29, N2-(5-Methyl-furan-2-ylmethyl)-N5-(6-methyl-pyridin-2-ylmethyl)-quinoline-2,5-diamine], the Ki turned out to be 17.5 nM.

Take `CC(Nc1cccc2nc(Nc3cccc4c3OC(C)(C)C4)ccc12)c1cccnc1` (racemic) [Example 162, rac-N2-(2,2-Dimethyl-2,3-dihydro-benzofuran-7-yl)-N5-(1-pyridin-3-yl-ethyl)-quinoline-2,5-diamine]: the Ki came to 7.15 nM.

For the molecule `Cc1ccc(CNc2ccc3c(N[C@H]4CCS(=O)(=O)c5ccccc54)cccc3n2)o1` [Example 152, (R)— and (S)—N5-((S)-1,1-Dioxo-1l6-thiochroman-4-yl)-N2-(5-methyl-furan-2-ylmethyl)-quinoline-2,5-diamine], the Ki came to 14.7 nM.

For `COc1ccccc1CNc1ccc2c(C(=NO)c3ccc(F)cc3)cccc2n1` [Example 167, (4-Fluoro-phenyl)-[2-(2-methoxy-benzylamino)-quinolin-5-yl]-methanone oxime], the Ki was determined as 7.19 nM.

Take `Cc1ccc(CNc2ccc3c(CCc4ccccc4)cccc3n2)o1` [Example 17, (5-Methyl-furan-2-ylmethyl)-(5-phenethyl-quinolin-2-yl)-amine]: the Ki turned out to be 21.3 nM.

Turning to `COc1ccccc1CNc1ccc2c(NCc3ccccc3)cccc2n1` [Example 7, N5-Benzyl-N2-(2-methoxy-benzyl)-quinoline-2,5-diamine], the Ki was found to be 7.57 nM.

Turning to `COCCOc1cccc(CNc2cccc3nc(NCc4ccc(C)o4)ccc23)c1` [Example 28, N5-[3-(2-Methoxy-ethoxy)-benzyl]-N2-(5-methyl-furan-2-ylmethyl)-quinoline-2,5-diamine], the Ki came to 49.4 nM.

On to `Cc1ccc(CNc2ccc3c(CCc4ccccn4)cccc3n2)o1` [Example 54, (5-Methyl-furan-2-ylmethyl)-[5-(2-pyridin-2-yl-ethyl)-quinolin-2-yl]-amine], for which the Ki is 44.7 nM.

As to `Cc1ccc(CNc2ccc3c(NS(=O)(=O)c4cccc(F)c4)cccc3n2)o1` [Example 73, 3-Fluoro-N-{2-[(5-methyl-furan-2-ylmethyl)-amino]-quinolin-5-yl}-benzenesulfonamide], the Ki is 21.4 nM.

Take `COc1ccccc1CNc1ccc2c(NCc3cc[nH]n3)cccc2n1` [Example 98, N2-(2-Methoxy-benzyl)-N5-(1H-pyrazol-3-ylmethyl)-quinoline-2,5-diamine]: the Ki came out at 33.3 nM.

In the case of `COc1ccccc1CNc1ccc2c(NCc3cccc4[nH]ccc34)cccc2n1` [Example 102, N5-(1H-Indol-4-ylmethyl)-N2-(2-methoxy-benzyl)-quinoline-2,5-diamine], the Ki stood at 6.41 nM.

Consider `CC(Nc1cccc2nc(Nc3cccc4c3OC(C)(C)C4)ccc12)c1nccs1` (racemic) [Example 160, rac-N2-(2,2-Dimethyl-2,3-dihydro-benzofuran-7-yl)-N5-(1-thiazol-2-yl-ethyl)-quinoline-2,5-diamine], for which the Ki came to 15.8 nM.

`COCc1cccc(CCc2cccc3nc(NCc4ccc(C)o4)ccc23)c1` [Example 33, {5-[2-(3-Methoxymethyl-phenyl)-ethyl]-quinolin-2-yl}-(5-methyl-furan-2-ylmethyl)-amine]: the Ki came to 39.3 nM.

In the case of `CSc1ccccc1CNc1ccc2c(NS(=O)(=O)c3ccc(F)cc3)cccc2n1` [Example 82, 4-Fluoro-N-[2-(2-methylsulfanyl-benzylamino)-quinolin-5-yl]-benzenesulfonamide], the inhibition constant Ki stood at 33.9 nM.

For the molecule `COc1ccccc1CNc1ccc2c(NCc3cnc[nH]3)cccc2n1` [Example 101, N5-(3H-Imidazol-4-ylmethyl)-N2-(2-methoxy-benzyl)-quinoline-2,5-diamine], the Ki is 14.5 nM.

With `Cc1ccc(CNc2ccc3c(NCc4cnn[nH]4)cccc3n2)o1` [Example 115, N2-(5-Methyl-furan-2-ylmethyl)-N5-(3H-[1,2,3]triazol-4-ylmethyl)-quinoline-2,5-diamine], the Ki is 35.3 nM.

The record behind these values is US7825253B2, “2-aminoquinoline derivatives” (Hoffmann-La Roche Inc., priority 2006, dated 2010).
